Measurements published in patent EP2199292A1, “7-azaindirubins, 7'-azaindirubins, 7-7'-diazaindirubin and the corresponding 3'-oxime ether derivates: production thereof, their production and use as a medicament” (Technische Universität Kaiserslautern, priority 2008, dated 2010).
Like-named read-outs stand apart in the source and are kept apart here. Blank lines part the entries; values can stand above or below the molecule they belong to.

Experiments:
human cancer cell lines = experiment: Antiproliferative activity against human cancer cell lines, compared with indirubin; assay type: cell-based; conditions: as compared to the parent molecule
Procedure: (§1) The antiproliferative activity was determined using the Sulforhodamin B assay (SRB assay) as reported previously (Vatter et al. 2005, Int. J. Clin. Pharmacal.Ther. 43, 607). Table 1: Inhibition of tumor cell proliferation, SRB assay.

[1] = test system: murine C6 glioblastoma cells; conditions: compared with parent compound 5-methylindirubin; WO 03/070703; cited from earlier work
HT29 = experiment: Inhibition of tumor cell proliferation, Sulforhodamin B assay (SRB assay), HT29; assay type: cell-based; conditions: Homo sapiens, HT-29
Procedure: as §1

MCF7 = experiment: Inhibition of tumor cell proliferation, Sulforhodamin B assay (SRB assay), MCF7; assay type: cell-based; conditions: Homo sapiens
Procedure: as §1

Compound: O=C1Nc2ccccc2C1=C1Nc2ncccc2C1=O [E843, 7'-Azaindirubin]
antiproliferative activity (human cancer cell lines): markedly augmented

Compound: O=C1Nc2ncccc2/C1=C1/Nc2ccccc2C1=O [Example 12, 7-Azaindirubin]
antiproliferative activity (human cancer cell lines): markedly augmented

Compound: Cc1cc2c(cc1O)NC(=O)C2=C1Nc2ccccc2C1=O
inhibition of murine C6 glioblastoma cells [1]: as effective as the parent compound

IC50 (HT29; HT29, SRB assay, read-out: Inhibition of cell proliferation IC50): 5 nM
IC50 (HT29; HT29 colon tumor cells, IC50 values ranging down to, read-out: inhibition of proliferation IC50): ≥ 2 nM
IC50 (MCF7; MCF7, MCF-7 breast cancer cells, IC50 values ranging down to, read-out: inhibition of proliferation IC50): ≥ 2 nM
IC50 (MCF7; MCF7, SRB assay, read-out: Inhibition of cell proliferation IC50): 7 nM
Compound: O=C1Nc2ncccc2C1=C1Nc2ncccc2C1=O [E864, 7,7'-Diazaindirubin]
